Test results from publication PMC3215271 (European journal of pharmacology, 2011).
Where “and” joins values, the source holds several entries; their conditions need not be identical. Equal values may be shown once. Entries after “also recorded” stand apart in the source; their conditions may differ.

Legend:
[1] = system: tail flick latency; test: Thermal acute nociception; type: in vivo, rat; conditions: for maximum possible effect: tail-flick
[2] = system: nicotinic acetylcholine receptors mediating nicotine-evoked dopamine release; conditions: ref Zhang et al., 2008; cited from earlier work
[3] = biological target: α6/α3β2β3 nicotinic acetylcholine receptor (Rattus norvegicus, UniProt P04757+P12390+P12391+P43143); conditions: 95% CI in parentheses
[4] = biological target: α4β2 nicotinic acetylcholine receptors (Rattus norvegicus, UniProt P09483+P12390)
[5] = biological target: human μ-opioid receptor (Homo sapiens, UniProt P35372); test: Competition radioligand binding, [3H]DAMGO; conditions: 95% CI in parentheses
[6] = biological target: α9α10 nicotinic acetylcholine receptors (Rattus norvegicus, UniProt P43144+Q9JLB5)
[7] = biological target: T1, human serotonin(3) receptor (Homo sapiens, UniProt P46098); test: Competition radioligand binding, [3H]LY278584; conditions: for Ki: 5HT3
T1 sequence (P46098 24-478): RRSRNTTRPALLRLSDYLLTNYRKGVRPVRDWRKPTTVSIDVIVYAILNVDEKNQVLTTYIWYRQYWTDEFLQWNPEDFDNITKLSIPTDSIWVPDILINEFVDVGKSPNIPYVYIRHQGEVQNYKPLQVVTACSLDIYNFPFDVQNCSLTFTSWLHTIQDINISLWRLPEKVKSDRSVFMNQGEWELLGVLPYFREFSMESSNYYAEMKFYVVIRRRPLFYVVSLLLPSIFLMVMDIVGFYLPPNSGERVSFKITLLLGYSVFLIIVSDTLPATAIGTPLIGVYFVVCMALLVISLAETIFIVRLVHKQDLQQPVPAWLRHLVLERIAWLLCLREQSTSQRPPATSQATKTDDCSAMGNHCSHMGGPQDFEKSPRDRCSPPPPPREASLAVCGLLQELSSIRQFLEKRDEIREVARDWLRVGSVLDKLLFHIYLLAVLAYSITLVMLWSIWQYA

[8] = biological target: α3β4 nicotinic acetylcholine receptor (Rattus norvegicus, UniProt P04757+P12392); conditions: 95% CI in parentheses
[9] = biological target: α2β2 nicotinic acetylcholine receptor (Rattus norvegicus, UniProt P12389+P12390); conditions: 95% CI in parentheses
[10] = biological target: α1β1δε nicotinic acetylcholine receptor (Mus musculus, UniProt P02716+P04756+P09690+P20782); conditions: 95% CI in parentheses
[11] = biological target: rat γ-aminobutyric acid(B)(1b,2) receptor (Rattus norvegicus, UniProt Q9Z0U4); test: Competition radioligand binding, [3H]CGP54626; conditions: GABAB; [3H]CGP54626 2 nM
[12] = biological target: α7 nicotinic acetylcholine receptors (Rattus norvegicus, UniProt Q05941); test: Voltage clamp electrophysiology, cloned α7 nicotinic receptor in Xenopus oocytes; conditions: 95% CI in parentheses
[13] = system: mechanical hyperalgesia; test: Chronic constriction nerve injury model of neuropathic pain; type: in vivo, rat
[14] = system: nicotinic acetylcholine receptor subtype; test: Agonist activity at nicotinic receptor subtypes in Xenopus oocytes; conditions: any nicotinic acetylcholine receptor subtype evaluated; data not shown
[15] = system: rotarod performance; test: Motor coordination; type: in vivo, rat
[16] = biological target: α4β4 nicotinic acetylcholine receptor (Rattus norvegicus, UniProt P09483+P12392); conditions: 95% CI in parentheses
[17] = biological target: rat κ-opioid receptor (Rattus norvegicus, UniProt P34975); test: Competition radioligand binding, [3H]U69593; conditions: 95% CI in parentheses
[18] = system: formalin-induced flinching behavior; test: Rodent model of inflammatory pain; type: in vivo, rat; conditions: for ED50 (95% CI): formalin test, i.p. 15 min prior to formalin, rat
[19] = biological target: α2β4 nicotinic acetylcholine receptor (Rattus norvegicus, UniProt P12389+P12392); conditions: 95% CI in parentheses
[20] = system: α4β2* nicotinic acetylcholine receptors; conditions: binding assays; ref Zhang et al., 2008; cited from earlier work
[21] = biological target: α3β2 nicotinic acetylcholine receptor (Rattus norvegicus, UniProt P04757+P12390); conditions: 95% CI in parentheses
[22] = biological target: rat γ-aminobutyric acid(A) receptor; test: Competition radioligand binding, [3H]muscimol, rat brain membranes; conditions: GABAA; [3H]muscimol 5 nM
[23] = biological target: α6/α3β4 nicotinic acetylcholine receptor (Rattus norvegicus, UniProt P04757+P12392+P43143); conditions: 95% CI in parentheses
[24] = system: mechanical hyperalgesia; conditions: chronic constriction injury; i.p.; ref Holtman et al., 2010b; cited from earlier work
[25] = system: formalin-induced flinching behavior; conditions: formalin model; i.p.; ref Holtman et al., 2010b; cited from earlier work
[26] = system: rotarod performance; conditions: ref Holtman et al., 2010b, cited from earlier work
[27] = in vivo; cited from earlier work
[28] = chronic constriction injury paw, 3600 μg/kg i.p.

C(#Cc1cc(C#CCCC[n+]2cccc(-c3ccccc3)c2)c(C#CCCC[n+]2cccc(-c3ccccc3)c2)cc1C#CCCC[n+]1cccc(-c2ccccc2)c1)CCC[n+]1cccc(-c2ccccc2)c1.[Br-].[Br-].[Br-].[Br-] [ZZ-204G, 5,5′,5″, 5‴-(1,2,4,5-benzenetetrayl)tetrakis-[1-(3-phenylpyridinium)-4-pentyne] tetrabromide]
antinociceptive effect in the tail-flick assay ([1]; 3.6, 36, 360 μg/kg i.p. vs saline): not antinociceptive; also recorded: did not significantly differ from that of saline control
maximum possible effect ([1]; 3.6 μg/kg i.p.): 8.4±4.6%
maximum possible effect ([1]; 36 μg/kg i.p.): 6.2±1.75%
maximum possible effect ([1]; 360 μg/kg i.p.): 15.6±2.4%
antagonism at nicotinic receptors mediating nicotine-evoked dopamine release [2]: weak antagonist
Hill Slope [3]: 0.44 (0.33–0.56)
IC50 ([3]; oocytes, acetylcholine 100 μM): 98.2 nM
block of acetylcholine-induced currents ([4]; 100 nM compound): ~ 5% and < 5%
Hill Slope ([4]; 95% CI in parentheses): 1.05 (0.73–1.4)
IC50 ([4]; oocytes, acetylcholine 100 μM, 95% CI in parentheses): 3830 nM
Hill Slope ([5]; μ-opioid binding): 1.1 (0.94–1.3)
Ki ([5]; μ-opioid, [3H]DAMGO 0.3 nM): 659 nM
inhibition of the acetylcholine response ([6]; α9α10, 10 nM compound, 0.01 µM): 93.9 ± 1.4% and ~ 95%
effect on current with Ca++ in buffer replaced with equimolar Ba++ ([6]; α9α10, 100 nM compound, n=3, data not shown): abolished the current
Hill Slope ([6]; α9α10, 95% CI in parentheses): 0.84 (0.59–1.1)
reversibility of block ([6]; α9α10, washout of compound): Block was reversed upon washout
potency at κ- and μ-opioid receptors, fold less than at α9α10 ([6]; κ- and μ-opioid receptors vs α9α10): 1000 fold
Ki ([7]; [3H]LY278584 0.3 nM, 95% CI in parentheses): 2230 nM
Ki ([7]; displacing [3H]LY27854): 2200 nM
Hill Slope ([7]; 5HT3 binding, 95% CI in parentheses): 1.05 (0.73–1.37)
Hill Slope [8]: 1.56 (1.1–2.0)
IC50 ([8]; oocytes, acetylcholine 100 μM): 792 nM
Hill Slope [9]: 1.25 (0.98–1.5)
IC50 ([9]; oocytes, acetylcholine 100 μM): 2330 nM
Hill Slope [10]: 1.61 (1.2–2.1)
IC50 ([10]; oocytes, acetylcholine 10 μM): 120 nM
Ki [11]: > 10000 nM
Hill Slope [12]: 1.03 (0.48–1.6)
IC50 ([12]; oocytes, acetylcholine 200 μM): 8.8 nM
maximum possible effect [13, 28]: 81.9±7.6%
time maximum possible effect was maintained after administration [13, 28]: 240 min
time to reach maximum possible effect [13, 28]: ≤ 60 min
ED50 (95% CL) ([13]; chronic constriction injury, paw pressure test, mechanical hyperalgesia, i.p., rat): 96.2 (35.7–255.3) μg/kg
AUC0–120min (antihyperalgesic effect) ([13]; chronic constriction injury, 3.6 μg/kg i.p.): 932.8±672.1
AUC0–120min (antihyperalgesic effect) ([13]; chronic constriction injury, 36 μg/kg i.p.): 1845.3±1008.0
AUC0–120min (antihyperalgesic effect) ([13]; chronic constriction injury, 360 μg/kg i.p.): 3126.6±840.9
AUC0–120min (antihyperalgesic effect) ([13]; chronic constriction injury, 3600 μg/kg i.p.): 6946.9±1632.2
agonist activity [14]: No agonist activity
motor effect at highest antihyperalgesic dose ([15]; naïve rats, 3,600 ug/kg): significant motor effect
ED50 (95% CI), motor incoordination ([15]; rotarod performance, intact rats, i.p.): 1884 (942–3767) μg/kg
Hill Slope [16]: 1.6 (0.99–2.2)
IC50 ([16]; oocytes, acetylcholine 100 μM): 1730 nM
Hill Slope ([17]; κ-opioid binding): 0.95 (0.67–1.2)
Ki ([17]; κ-opioid, [3H]U69593 0.3 nM): 783 nM
ED50 (95% CI) ([18]; the first phase (0–10 min)): 16.2 (2.9–90.3) μg/kg
ED50 (95% CI) ([18]; the second phase (20–60 min)): 2.12 (1.24 – 5.65) μg/kg
greater potency against formalin-evoked inflammatory pain than neuropathic pain ([18]; formalin vs chronic constriction injury): ~ 50 fold
Hill Slope [19]: 1.36 (0.98–1.7)
IC50 ([19]; oocytes, acetylcholine 100 μM): 2900 nM
affinity for α4β2* nicotinic acetylcholine receptors [20]: poor affinity
Hill Slope [21]: 1.11 (0.28–1.9)
IC50 ([21]; oocytes, acetylcholine 100 μM): 750 nM
Ki [22]: > 10000 nM
Hill Slope [23]: 1.2 (0.73–1.8)
IC50 ([23]; oocytes, acetylcholine 100 μM): 6140 nM

c1cncc([C@@H]2CCCN2)c1 [S(−) nornicotine]
ED50 [24]: 5.2 (3.1–8.5) mg/kg
ED50 [25]: 1.5 (0.6–3.6) mg/kg
ED50 for motor impairment vs. analgesia, fold higher ([26]; rotarod vs chronic constriction injury and formalin): 3–9 fold
ED50 ([26]; rotarod, motor impairment, i.p.): 13.6 (9.2–19.9) mg/kg

α-conotoxin Vc1.1
adverse effects [27]: did not produce any adverse effects
